Molecular target: T1, GST-Xa-hAAK1 (Homo sapiens, UniProt Q2M2I8)
T1 construct: GST (N); Factor Xa cleavage site (Xa) (internal); made in house
Experiment: AAK1 Kinase Assay
Format: biochemical
Conditions: bacterially expressed GST-Xa-hAAK1 3.5 nM; ATP 22 μM; fluoresceinated peptide 1.5 μM; 3 hours at room temperature; Caliper LabChip 3000
Description: The assays were performed in U-bottom 384-well plates. The final assay volume was 30 μl prepared from 15 μl additions of enzyme and substrates (fluoresceinated peptide (5-FAM)-Aha-[…]-NH2 and ATP) and test compounds in assay buffer (10 mM Tris-HCL pH 7.4, 10 mM MgCl2, 0.01% Tween-20 and 1.0 mM DTT). The reactions were initiated by the combination of bacterially expressed, GST-Xa-hAAK1 with substrates and test compounds. The reactions were incubated at room temperature for 3 hours and terminated by adding 60 μl of 35 mM EDTA buffer to each sample. The reactions were analyzed on the Caliper LabChip 3000 (Caliper, Hopkinton, Mass.) by electrophoretic separation of the fluorescent substrate and phosphorylated product. […] The final concentration of reagents in the assays are ATP, 22 μM; (5-FAM)-Aha-[…]-NH2, 1.5 μM; GST-Xa-hAAK1, 3.5 nM; and DMSO, 1.6%. […] Compounds were dissolved at 10 mM in dimethylsulfoxide (DMSO) and evaluated at eleven concentrations. IC50 values were derived by non-linear regression analysis.

T1 sequence (Q2M2I8 whole entry): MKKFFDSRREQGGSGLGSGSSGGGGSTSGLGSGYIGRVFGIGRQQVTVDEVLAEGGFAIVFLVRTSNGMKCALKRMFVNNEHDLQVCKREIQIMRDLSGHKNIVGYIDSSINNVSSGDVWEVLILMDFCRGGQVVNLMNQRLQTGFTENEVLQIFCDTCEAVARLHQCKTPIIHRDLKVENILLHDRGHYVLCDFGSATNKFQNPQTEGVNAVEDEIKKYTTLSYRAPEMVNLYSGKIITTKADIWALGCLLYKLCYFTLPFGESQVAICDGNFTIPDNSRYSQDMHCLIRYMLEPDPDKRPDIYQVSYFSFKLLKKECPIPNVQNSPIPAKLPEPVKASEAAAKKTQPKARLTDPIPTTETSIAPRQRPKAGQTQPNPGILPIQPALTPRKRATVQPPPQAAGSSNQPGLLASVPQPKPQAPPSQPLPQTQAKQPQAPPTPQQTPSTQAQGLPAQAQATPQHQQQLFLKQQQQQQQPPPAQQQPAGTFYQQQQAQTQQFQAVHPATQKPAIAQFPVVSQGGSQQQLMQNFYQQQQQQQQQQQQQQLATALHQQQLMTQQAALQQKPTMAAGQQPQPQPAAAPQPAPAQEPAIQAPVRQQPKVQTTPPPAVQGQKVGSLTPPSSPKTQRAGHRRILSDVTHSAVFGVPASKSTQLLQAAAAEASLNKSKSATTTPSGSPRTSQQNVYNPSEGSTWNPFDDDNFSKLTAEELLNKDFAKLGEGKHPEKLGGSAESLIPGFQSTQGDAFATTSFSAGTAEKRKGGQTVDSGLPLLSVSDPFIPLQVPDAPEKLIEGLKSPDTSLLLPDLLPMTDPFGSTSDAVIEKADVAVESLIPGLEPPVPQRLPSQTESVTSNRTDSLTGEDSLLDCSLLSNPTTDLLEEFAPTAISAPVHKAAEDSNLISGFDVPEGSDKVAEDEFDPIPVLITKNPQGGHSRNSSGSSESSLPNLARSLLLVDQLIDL

Structure (SMILES) | IC50
Cc1csc(Nc2nccc(-c3ccc(OC[C@@](C)(N)CC(C)C)c(C#N)c3)n2)n1 [Example 380, (S)-2-((2-amino-2,4-dimethylpentyl)oxy)-5-(2-((4-methylthiazol-2-yl)amino)pyrimidin-4-yl)benzonitrile] | 1 nM
Cc1csc(Nc2nccc(-c3ccc(OC[C@@](C)(N)CC(C)C)c(C)c3)n2)n1 [Example 381, (S)—N-(4-(4-((2-amino-2,4-dimethylpentyl)oxy)-3-methylphenyl)pyrimidin-2-yl)-4-methylthiazol-2-amine] | 1.5 nM
CC(C)C[C@](C)(N)COc1ccc(-c2ccnc(NC(=O)C3CC3)c2)cc1C(F)(F)F [Example 389, (S)—N-(4-(4-((2-amino-2,4-dimethylpentyl)oxy)-3-(trifluoromethyl)phenyl)pyridin-2-yl)cyclopropanecarboxamide] | 0.3 nM
CC(C)C[C@](C)(N)COc1ccc(-c2ccnc(NC(=O)C3CCC3)c2)cc1C(F)(F)F [Example 390, (S)—N-(4-(4-((2-amino-2,4-dimethylpentyl)oxy)-3-(trifluoromethyl)phenyl)pyridin-2-yl)cyclobutanecarboxamide] | 0.5 nM
CC(C)C[C@](C)(N)COc1ccc(-c2ccnc(NC(=O)C3CCCC3)c2)cc1C(F)(F)F [Example 391, (S)—N-(4-(4-((2-amino-2,4-dimethylpentyl)oxy)-3-(trifluoromethyl)phenyl)pyridin-2-yl)cyclopentanecarboxamide] | 0.5 nM
CC(C)C[C@](C)(N)COc1ccc(-c2ccnc(NC(=O)CC3CCCC3)c2)cc1C(F)(F)F [Example 392, (S)—N-(4-(4-((2-amino-2,4-dimethylpentyl)oxy)-3-(trifluoromethyl)phenyl)pyridin-2-yl)-2-cyclopentylacetamide] | 0.7 nM
CC(C)C[C@](C)(N)COc1ccc(-c2ccnc(NC(=O)CCC3CCCC3)c2)cc1C(F)(F)F [Example 393, (S)—N-(4-(4-((2-amino-2,4-dimethylpentyl)oxy)-3-(trifluoromethyl)phenyl)pyridin-2-yl)-3-cyclopentylpropanamide] | 7.3 nM
CC(C)C[C@](C)(N)COc1ccc(-c2ccnc(NC(=O)CC3CCCCC3)c2)cc1C(F)(F)F [Example 394, (S)—N-(4-(4-((2-amino-2,4-dimethylpentyl)oxy)-3-(trifluoromethyl)phenyl)pyridin-2-yl)-2-cyclohexylacetamide] | 2 nM
CC(C)C[C@](C)(N)COc1ccc(-c2ccnc(NC(=O)C3CCCO3)c2)cc1C(F)(F)F (stereo partly drawn) [Example 398, N-(4-(4-(((S)-2-amino-2,4-dimethylpentyl)oxy)-3-(trifluoromethyl)phenyl)pyridin-2-yl)tetrahydrofuran-2-carboxamide] | 1 nM
CC(C)C[C@](C)(N)COc1ccc(-c2ccnc(NC(=O)CC3CCCCCC3)c2)cc1C(F)(F)F [Example 399, (S)—N-(4-(4-((2-amino-2,4-dimethylpentyl)oxy)-3-(trifluoromethyl)phenyl)pyridin-2-yl)-2-cycloheptylacetamide] | 5.9 nM
CC(C)C[C@](C)(N)COc1ccc(-c2ccnc(NC(=O)c3ccco3)c2)cc1C(F)(F)F [Example 400, (S)—N-(4-(4-((2-amino-2,4-dimethylpentyl)oxy)-3-(trifluoromethyl)phenyl)pyridin-2-yl)furan-2-carboxamide] | 0.3 nM
CC(C)C[C@](C)(N)COc1ccc(-c2ccnc(NC(=O)c3ccc(Br)o3)c2)cc1C(F)(F)F [Example 401, (S)—N-(4-(4-((2-amino-2,4-dimethylpentyl)oxy)-3-(trifluoromethyl)phenyl)pyridin-2-yl)-5-bromofuran-2-carboxamide] | 0.6 nM
CC(=O)NCC(=O)Nc1cc(-c2ccc(OC[C@@](C)(N)CC(C)C)c(C(F)(F)F)c2)ccn1 [Example 402, (S)-2-acetamido-N-(4-(4-((2-amino-2,4-dimethylpentyl)oxy)-3-(trifluoromethyl)phenyl)pyridin-2-yl)acetamide] | 0.5 nM
CC(C)C[C@](C)(N)COc1ccc(-c2ccnc(NC(=O)c3cccs3)c2)cc1C(F)(F)F [Example 403, (S)—N-(4-(4-((2-amino-2,4-dimethylpentyl)oxy)-3-(trifluoromethyl)phenyl)pyridin-2-yl)thiophene-2-carboxamide] | 0.5 nM
CC(C)C[C@](C)(N)COc1ccc(-c2ccnc(NC(=O)c3cnccn3)c2)cc1C(F)(F)F [Example 404, (S)—N-(4-(4-((2-amino-2,4-dimethylpentyl)oxy)-3-(trifluoromethyl)phenyl)pyridin-2-yl)pyrazine-2-carboxamide] | 0.7 nM
Cc1ncccc1C(=O)Nc1cc(-c2ccc(OC[C@@](C)(N)CC(C)C)c(C(F)(F)F)c2)ccn1 [Example 405, (S)—N-(4-(4-((2-amino-2,4-dimethylpentyl)oxy)-3-(trifluoromethyl)phenyl)pyridin-2-yl)-2-methylnicotinamide] | 2 nM

Structure (SMILES) | IC50
CC(C)C[C@](C)(N)COc1ccc(-c2ccnc(NC(=O)c3cnn[nH]3)c2)cc1C(F)(F)F [Example 406, (S)—N-(4-(4-((2-amino-2,4-dimethylpentyl)oxy)-3-(trifluoromethyl)phenyl)pyridin-2-yl)-1H-1,2,3-triazole-5-carboxamide] | 0.3 nM
CC(C)C[C@](C)(N)COc1ccc(-c2ccnc(NC(=O)C3=NNC(=O)CC3)c2)cc1C(F)(F)F [Example 407, (S)—N-(4-(4-((2-amino-2,4-dimethylpentyl)oxy)-3-(trifluoromethyl)phenyl)pyridin-2-yl)-6-oxo-1,4,5,6-tetrahydropyridazine-3-carboxamide] | 0.8 nM
Cc1cc(C(=O)Nc2cc(-c3ccc(OC[C@@](C)(N)CC(C)C)c(C(F)(F)F)c3)ccn2)no1 [Example 408, (S)—N-(4-(4-((2-amino-2,4-dimethylpentyl)oxy)-3-(trifluoromethyl)phenyl)pyridin-2-yl)-5-methylisoxazole-3-carboxamide] | 0.5 nM
CC(C)C[C@](C)(N)COc1ccc(-c2ccnc(NC(=O)c3cc(C(C)C)[nH]n3)c2)cc1C(F)(F)F [Example 409, (S)—N-(4-(4-((2-amino-2,4-dimethylpentyl)oxy)-3-(trifluoromethyl)phenyl)pyridin-2-yl)-5-isopropyl-1H-pyrazole-3-carboxamide] | 0.7 nM
CC(C)C[C@](C)(N)COc1ccc(-c2ccnc(NCc3cccnc3)c2)cc1C(F)(F)F [Example 410, (S)-4-(4-((2-amino-2,4-dimethylpentyl)oxy)-3-(trifluoromethyl)phenyl)-N-(pyridin-3-ylmethyl)pyridin-2-amine] | 3.6 nM
CC(C)C[C@](C)(N)COc1ccc(-c2ccnc(NCc3ccco3)c2)cc1C(F)(F)F [Example 411, (S)-4-(4-((2-amino-2,4-dimethylpentyl)oxy)-3-(trifluoromethyl)phenyl)-N-(furan-2-ylmethyl)pyridin-2-amine] | 1.1 nM
CC(C)C[C@](C)(N)COc1ccc(-c2ccnc(Nc3ccc4c(c3)OCO4)c2)cc1C(F)(F)F [Example 412, (S)-4-(4-((2-amino-2,4-dimethylpentyl)oxy)-3-(trifluoromethyl)phenyl)-N-(benzo[d][1,3]dioxol-5-yl) pyridin-2-amine] | 6.4 nM
CC(C)C[C@](C)(N)COc1ccc(-c2ccnc3c2C(=O)N(C)C3)cc1F [Example 413, (S)-4-(4-((2-amino-2,4-dimethylpentyl)oxy)-3-fluorophenyl)-6-methyl-6,7-dihydro-5H-pyrrolo [3,4-b]pyridin-5-one] | 765 nM
CC(C)C[C@](C)(N)COc1ccc(-c2ccnc3c2C(=O)N(C)C3)cc1C#N [Example 414, (S)-2-((2-amino-2,4-dimethylpentyl)oxy)-5-(6-methyl-5-oxo-6,7-dihydro-5H-pyrrolo[3,4-b]pyridin-4-yl)benzonitrile] | 47 nM
CC(C)C[C@](C)(N)COc1ccc(-c2ccnc3c2C(=O)NC3)cc1C#N [Example 415, (S)-2-((2-amino-2,4-dimethylpentyl)oxy)-5-(5-oxo-6,7-dihydro-5H-pyrrolo[3,4-b]pyridin-4-yl)benzonitrile] | 3.1 nM
CC(C)C[C@](C)(N)COc1ccc(-c2ccnc3c2C(=O)NC3)cc1F [Example 416, (S)-4-(4-((2-amino-2,4-dimethylpentyl)oxy)-3-fluorophenyl)-6,7-dihydro-5H-pyrrolo[3,4-b]pyridin-5-one] | 94 nM
CC(C)C[C@](C)(N)COc1ccc(-c2ccnc3c2C(=O)NC3)cc1Cl [Example 417, (S)-4-(4-((2-amino-2,4-dimethylpentyl)oxy)-3-chlorophenyl)-6,7-dihydro-5H-pyrrolo[3,4-b]pyridin-5-one] | 3.6 nM
CCN1Cc2nccc(-c3ccc(OC[C@@](C)(N)CC(C)C)c(C(F)(F)F)c3)c2C1=O [Example 418, (S)-4-(4-((2-amino-2,4-dimethylpentyl)oxy)-3-(trifluoromethyl)phenyl)-6-ethyl-6,7-dihydro-5H-pyrrolo[3,4-b]pyridin-5-one] | 29 nM
CCN1Cc2nccc(-c3ccc(OC[C@@](C)(N)CC(C)C)c(F)c3)c2C1=O [Example 419, (S)-4-(4-((2-amino-2,4-dimethylpentyl)oxy)-3-fluorophenyl)-6-ethyl-6,7-dihydro-5H-pyrrolo [3,4-b]pyridin-5-one] | 1140 nM
CC(C)C[C@](C)(N)COc1ccc(-c2ccnc3cc[nH]c23)cc1F [Example 420, (S)-1-(2-fluoro-4-(1H-pyrrolo[3,2-b]pyridin-7-yl)phenoxy)-2,4-dimethylpentan-2-amine] | 1.1 nM
